For two compounds, IC50 results are on record in article PMC7335011 (The Journal of General Physiology, 2020).

The target in this assay is MthK (Methanothermobacter thermautotrophicus, UniProt O27564). Type of assay: biochemical.

Compound `NCCCCNCCCN` [SPD^3+] registered an IC50 of 860 ± 20 µM.

`NCCCNCCCCNCCCN` [SPM^4+]: the midpoint of inhibition, the IC50, lay at 77 ± 6 µM.
